Results reported in patent publication EP0358880B1, “Use of retinoids” (F. HOFFMANN-LA ROCHE AG, priority 1988, dated 1990).
Marks after values point to notes of the source that are not given here.

How the values were obtained:
[1] = tested on: UVB-Induced Dermal Damage in the Hairless Mouse; test: Repair of UVB-induced dermal damage in the hairless mouse (repair zone by histology, Luna's stain, image analyzer); assay type: in vivo, Hairless mice (HRS/J strain); settings: three times per week, 10 weeks, total area per twenty microscopic fields
Source text: Hairless mice (HRS/J strain, Jackson Labs, 5-7 weeks old at the start of the experiments) were irradiated three times per week with a bank of 8 Westinghouse® Sunlamps (FS40) placed about 20cm above the animals. The radiation dose was controlled by an International Light Model IL844A Phototherapy Exposure Control and a detector. The UVB dosing schedule was such that individual doses, seldom exceeding 0.06J/cm², caused minimal erythema but no burning or scarring. There was significant elastosis, detected by histology, after a total dose of about 3.5J/cm²: this was confirmed in measurements of elastin in whole skin by means of a radioimmunoassay for desmosine. Desmosine is found in elastin hydrolysates and is derived from crosslinks in the elastin molecule; it is a reliable index of total elastin. Typically, desmosine increased by about 2-3 fold after 3.5J/cm² of UVB irradiation. To effect repair of the dermal damage, the UVB irradiation was discontinued and animals were treated three times per week with various concentrations of the compounds of formula I dissolved in acetone. Solutions were made up freshly every week at concentrations such that the dose was delivered in 100µl acetone and applied topically to an area of about 10 cm² on the back of the animal with a plastic pipette; a control group treated with acetone alone was also included. After 10 weeks of treatment the animals were sacrificed, skin samples were taken and processed by standard methods. A six µm [micron] section from each animal was stained for elastin with Luna's stain and the degree of repair measured quantitatively. In this model, repair is defined by the appearance of a normalized dermis extending from the epidermis down to the layer of compressed elastin. The extent of repair was reflected by the width of this zone. In these studies, the area of the zone on a standard length of histological section was measured by an image analyzer and the results are given as total area in mm² per twenty microscopic fields. Data was analyzed by Student's t-test. The results are given in Table I. In Table I, and Table II each group dosed at a particular concentration of compound of formula I contained six to ten animals.

[2] = tested on: Wrinkles Produced in Hairless Mice by UVB-Irradiation; test: Effect on wrinkles produced in hairless mice by UVB irradiation (skin replica, visual Wrinkle Index); assay type: in vivo
Source text: Hairless mice (HRS/J strain, Jackson Labs, 5-7 weeks old at the start of the experiments) were irradiated three times per week with a bank of 8 Westinghouse® Sunlamps (FS40) placed about 20cm above the animals. The radiation dose was controlled by an International Light Model IL844A Phototherapy Exposure Control and a detector. The UVB dosing schedule was such that individual doses, seldom exceeding 0.06J/cm², caused minimal erythema but no burning or scarring. There was significant elastosis, detected by histology, after a total dose of about 3.5J/cm²: this was confirmed in measurements of elastin in whole skin by means of a radioimmunoassay for desmosine. Desmosine is found in elastin hydrolysates and is derived from crosslinks in the elastin molecule; it is a reliable index of total elastin. Typically, desmosine increased by about 2-3 fold after 3.5J/cm² of UVB irradiation. To effect repair of the dermal damage, the UVB irradiation was discontinued and animals were treated three times per week with various concentrations of the compounds of formula I dissolved in acetone. Solutions were made up freshly every week at concentrations such that the dose was delivered in 100µl acetone and applied topically to an area of about 10 cm² on the back of the animal with a plastic pipette; a control group treated with acetone alone was also included.
One skin replica for each animal was taken of these areas using a liquid dental impression material (SILFLO® - Flexico Developments Ltd., England). Wrinkles appeared in these impressions as ridges which cast a shadow when illuminated with low angle light. A characteristic of the wrinkling pattern was the occurrence of the ridges in a regularly-spaced array about 2-mm apart. The extent of wrinkling was visually assessed using this line pattern and assigned a value (Wrinkle Index) of zero to 4 with zero representing complete effacement of wrinkling and 4 representing the maximum degree of wrinkling. It was observed that compounds of formula I caused a dose-dependent effacement of the wrinkles with ED₅₀ values in the microgram range.

In the case of `C/C(=C\c1ccc(SC(=O)N(C)C)cc1)c1ccc2c(c1)C(C)(C)CCC2(C)C` [Compound A], the “Repair Zone” value ([1]; 0.1 µg topical in 100 µl acetone) is reported as 0.005 +/- 0.001 mm², the “Repair Zone” value ([1]; 0.5 µg topical in 100 µl acetone) is reported as 0.006 +/- 0.003 mm² and the “Repair Zone” value ([1]; 2.0 µg topical in 100 µl acetone, P < 0.05 vs Control) is reported as 0.021 +/- 0.003* mm². For the same molecule, the “Repair Zone” value ([1]; 10.0 µg topical in 100 µl acetone) was 0.015 +/- 0.004 mm², the “Repair Zone” value ([1]; 50.0 µg topical in 100 µl acetone, P < 0.05 vs Control) was 0.025 +/- 0.007* mm² and the “Wrinkle Index” value ([2]; 0.1 µg topical, scale zero (complete effacement) to 4 (maximum wrinkling)) was 1.4 +/- 0.5. The “Wrinkle Index” value ([2]; 0.5 µg topical, scale zero to 4, P < 0.05 vs Control) was 1.0 +/- 0.3*, the “Wrinkle Index” value ([2]; 2.0 µg topical, scale zero to 4, P < 0.01 vs Control) was 0.8 +/- 0.2** and the “Wrinkle Index” value ([2]; 10.0 µg topical, scale zero to 4, P < 0.001 vs Control) was 0.3 +/- 0.1***. For the same molecule, the “Wrinkle Index” value ([2]; 50.0 µg topical, scale zero to 4, P < 0.001 vs Control) was 0.3 +/- 0.1***.
